Test results as given in PMC9967538, “Cytotoxic Effect of Phenylethanoid Glycosides Isolated from Plantago lanceolata L” (Life, 2023).
Where two headings read alike, the source gives them in different places. Blank lines part the entries; values can stand above or below the molecule they belong to.

What was measured:
[1] = system: HeLa (human epithelial carcinoma); design: method as in PMID 8593444; settings: cited from earlier work
[2] = MTT cell proliferation assay, MCF-12A; format: cell-based, human; settings: human
[3] = system: MCF-12A nontumorigenic mammary epithelial cell line; assay: MTT cell proliferation assay, MCF-12A; format: cell-based, human; settings: Homo sapiens, MCF-12A
[4] = system: glioblastoma cell line T98G; design: method as in PMID 36551708; settings: cited from earlier work
[5] = MTT cell proliferation assay, MDA-MB-231; format: cell-based, human; settings: human
[6] = system: MDA-MB-231 breast adenocarcinoma cell line; assay: MTT cell proliferation assay, MDA-MB-231; format: cell-based, human; settings: for IC50: Homo sapiens, MTT, estimation ± SE
[7] = MTT cell proliferation assay, HepG2; format: cell-based, human; settings: human
[8] = system: HepG2 hepatocarcinoma cell line; assay: MTT cell proliferation assay, HepG2; format: cell-based, human; settings: Homo sapiens, MTT, estimation ± SE
[9] = system: d R Lh-84 cells (rat liver cancer); design: method as in PMID 8593444; settings: cited from earlier work
[10] = system: pre-senescent normal human diploid fibroblasts; design: method as in PMID 29505920; settings: 3-week treatment; cited from earlier work
S-180 (sarcoma) = system: S-180 (sarcoma); design: method as in PMID 8593444; settings: cited from earlier work
[11] = MTT cell proliferation assay, MCF-7; format: cell-based, human; settings: human
[12] = system: MCF-7 breast adenocarcinoma cell line; assay: MTT cell proliferation assay, MCF-7; format: cell-based, human; settings: for IC50: Homo sapiens, MCF7, MTT, estimation ± SE
[13] = MTT cell proliferation assay, OVCAR-3; format: cell-based, human; settings: human
[14] = system: OVCAR-3 ovarian cancer cell line; assay: MTT cell proliferation assay, OVCAR-3; format: cell-based, human; settings: for IC50: Homo sapiens, MTT, estimation ± SE
MDA-MB 231 cells = system: MDA-MB 231 cells; design: method as in PMID 34719192; settings: cell counting kit 8, cited from earlier work
[15] = system: C6 rat glioblastoma cell line; design: method as in PMID 30664150; settings: C6 cells, administered separately, cited from earlier work
protein kinase C (PKC) = settings: cited from earlier work
[16] = system: HL-60 promyelocytic leukemia cells; design: method as in PMID 9477175; settings: HL-60 cell death; cited from earlier work
[17] = system: MCF-7 breast cancer cells; design: method as in PMID 34719192; settings: cell counting kit 8, cited from earlier work
[18] = format: cell-based; settings: human
[19] = system: P-388/D1 (mouse lymphoid tumor); design: method as in PMID 8593444; settings: cited from earlier work
[20] = system: Caco-2 colorectal adenocarcinoma cell line; assay: MTT cell proliferation assay, Caco-2; format: cell-based; settings: Homo sapiens, estimation ± SE
[21] = system: lymphocytic leukemia cells P-388; design: method as in PMID 2380718; settings: cited from earlier work

IC50 ([6]; MDA-MB-231, 24 h): 312 ± 3.28 µM
IC50 ([6]; MDA-MB-231, 48 h): 245 ± 4.96 µM
IC50 ([6]; MDA-MB-231, 72 h): 200 ± 2.45 µM
IC50 ([8]; HepG2, 24 h): 261 ± 3.52 µM
IC50 ([8]; HepG2, 48 h): 220 ± 2.65 µM
IC50 ([8]; HepG2, 72 h): 173.8 ± 1.59 µM
IC50 ([12]; MCF-7, 24 h): 219.1 ± 1.4 µM
IC50 ([12]; MCF-7, 48 h): 154 ± 2.71 µM
IC50 ([12]; MCF-7, 72 h): 113 ± 2.81 µM
IC50 ([14]; OVCAR-3, 24 h): 314 ± 3.52 µM
IC50 ([14]; OVCAR-3, 48 h): 232 ± 5.08 µM
IC50 ([14]; OVCAR-3, 72 h): 163 ± 3.41 µM
IC50 ([20]; Caco-2, 24 h, values exceeding 500 μM determined with CompuSyn from dose-response curve estimation): > 500 µM
IC50 ([20]; Caco-2, 48 h): 467 ± 8.71 µM
IC50 ([20]; Caco-2, 72 h): 280 ± 6.13 µM
Structure (SMILES): C[C@@H]1O[C@@H](O[C@@H]2[C@@H](O)[C@H](OCCc3ccc(O)c(O)c3)O[C@H](CO)[C@H]2OC(=O)/C=C/c2ccc(O)c(O)c2)[C@H](O)[C@H](O)[C@H]1O [Acteoside]
IC50 ([1]; HeLa (human epithelial carcinoma), first value listed, converted, read-out: IC50): > 320 µM
IC50 ([1]; HeLa (human epithelial carcinoma), first value listed): > 200 µg/mL
IC50 ([1]; HeLa cells, second value listed, converted, read-out: IC50): 12.5 µM
viability at 400 µM [2]: < 30%
IC50 ([3]; 24 h, MTT, estimation ± SE, read-out: IC50): 362.3 ± 1.86 µM
IC50 ([3]; 48 h, MTT, estimation ± SE, read-out: IC50): 347 ± 3.67 µM
IC50 ([3]; 72 h, MTT, estimation ± SE, read-out: IC50): 326 ± 3.89 µM
IC50 ([3]; time not stated, summary of Table 1, read-out: IC50 (potency against the MCF-12A line)): ~300 µM
IC50 [4]: 85 µM
viability at 200 µM [5]: ≤ 30%
toxic effect (in words) ([6]; MDA-MB-231, 200 μM, after 24 h of treatment): highly toxic effect
viability at 200 µM [7]: ≤ 30%
IC50 [9]: 61.98 µg/mL
IC50 ([9]; converted from µg/mL, read-out: IC50): 99.2 µM
cytotoxic effect (in words) [10]: no cytotoxic effect
IC50 (S-180 (sarcoma); S-180, converted from µg/mL, read-out: IC50): 47.4 µM
IC50 (S-180 (sarcoma); S-180): 29.6 µg/mL
viability at 200 µM [11]: ≤ 30%
toxic effect (in words) ([12]; MCF-7, 200 μM, after 24 h of treatment): highly toxic effect
viability at 200 µM [13]: ≤ 30%
toxic effect (in words) ([14]; OVCAR-3, 200 μM, after 24 h of treatment): highly toxic effect
IC50 (MDA-MB 231 cells; MDA-MB 231, 24 h exposure): 0.16 µM
IC50 (MDA-MB 231 cells; MDA-MB 231, 48 h exposure): 0.258 µM
IC50 (MDA-MB 231 cells; MDA-MB 231, 72 h exposure): 0.256 µM
cell viability ([15]; 50 µM): ~80%
inhibition of protein kinase C (in words) (protein kinase C (PKC)): inhibitor
IC50 [16]: 26.7 µM
IC50 ([17]; MCF-7, 24 h exposure): 0.127 µM
IC50 ([17]; MCF-7, 48 h exposure): 0.217 µM
IC50 ([17]; MCF-7, 72 h exposure): 0.283 µM
viability at 200 µM [18]: ≤ 30%
IC50 ([19]; P-388/D1, converted from µg/mL, read-out: IC50): 354 µM
IC50 ([19]; P-388/D1): 221.0 µg/mL
ED50 ([21]; lymphocytic leukemia cells P-388, converted from µg/mL): 4.16 µM
ED50 ([21]; lymphocytic leukemia cells P-388): 2.6 µg/mL

Structure (SMILES): O=c1cc(-c2ccc(O)c(O)c2)oc2c([C@@H]3O[C@H](CO)[C@@H](O)[C@H](O)[C@H]3O)c(O)cc(O)c12 [orientin, reference compound]
IC50 [4]: > 100 µM

Structure (SMILES): Cn1nnc2c(C(N)=O)ncn2c1=O [temozolomide, reference compound]
cell viability ([15]; 5 mM): ca. 52%
